Earlier results in paper PMC4315033, “The regulation of muscle mass by endogenous glucocorticoids” (Frontiers in Physiology, 2015).

How the values were obtained:
[1] = tested on: MAFbx and MuRF1; design: method as in Frost et al., 2007; conditions: adult rats, ref Frost et al., 2007
[2] = tested on: other steroid receptors
[3] = tested on: muscle protein breakdown; design: method as in Zamir et al., 1992; conditions: ref Zamir et al., 1992
[4] = tested on: MAFbx, MuRF1, and Foxo1; design: method as in Braun et al., 2011; conditions: inflammatory cytokines delivered directly into the brain; ref Braun et al., 2011
[5] = tested on: muscle wasting; design: method as in Song et al., 2005; conditions: angiotensin II infused at concentrations mimicking endogenous production in CKD, co-administration; ref Song et al., 2005
[6] = tested on: muscle explants; design: method as in Tiao et al., 1996; conditions: juvenile rats, explants harvested 16 h after CLP; ref Tiao et al., 1996
[7] = tested on: cultured myotubes; design: method as in Biedasek et al., 2011; conditions: ref Biedasek et al., 2011
[8] = tested on: GR
[9] = tested on: TRAF6; design: method as in Sun et al., 2014; conditions: pharmacologic doses; ref Sun et al., 2014
[10] = tested on: miR27a and b; design: method as in Allen and Loh, 2011; conditions: ref Allen and Loh, 2011
[11] = tested on: GR^dim mice; design: method as in Reichardt et al., 1998; Tuckermann et al., 1999; conditions: ref Reichardt et al., 1998, Tuckermann et al., 1999
[12] = tested on: cultured myotubes; design: method as in Lokireddy et al., 2012; conditions: ref Lokireddy et al., 2012
[13] = tested on: muscle atrophy; design: method as in Hu et al., 2009; conditions: ref Hu et al., 2009
[14] = tested on: mineralocorticoid receptor; design: method as in Chapman et al., 2013; conditions: ref Chapman et al., 2013

## CC#C[C@]1(O)CC[C@H]2[C@@H]3CCC4=CC(=O)CCC4=C3[C@@H](c3ccc(N(C)C)cc3)C[C@@]21C [mifepristone]
[1]; CLP, 24 h
  induction of MAFbx and MuRF1 in septic rats: failed to alter
[1]; similar time point
  induction of MAFbx and MuRF1 by dexamethasone: effectively blocking
In vivo
  half-life (in words): very short
rodents, ref Heikinheimo et al., 1994
  half-life: 1 to 2 h
[2]
  activity at other steroid receptors: has activity
[3]; concurrent cytokine and mifepristone administration
  mortality: ~50%
[3]; concurrent mifepristone
  induction of muscle protein degradation brought about by tumor necrosis factor (TNF): attenuates
  proteolysis accompanied by interleukin-1 α administration: not blocked
[4]
  induction of MAFbx, MuRF1, and Foxo1 in muscle: blocked
[5]
  angiotensin II induced muscle wasting: reversed
[6]
  tyrosine release from muscle explants: significantly reduced

## C[C@]12CCC(=O)C=C1CC[C@@H]1[C@@H]2C(=O)C[C@@]2(C)[C@H]1CC[C@]2(O)C(=O)CO [cortisone]
[7]
  proteolysis and atrophy in cultured myotubes: capable of inducing
[8]
  binding to the GR: does not bind

## C[C@@H]1C[C@H]2[C@@H]3CCC4=CC(=O)C=C[C@]4(C)[C@@]3(F)[C@@H](O)C[C@]2(C)[C@@]1(O)C(=O)CO [dexamethasone]
[9]
  TRAF6 expression: increase
[10]
  levels of miR27a and b in skeletal muscle: decrease
[11]
  PMA-induced skin inflammation: continued to suppress
  expression of genes regulating carbohydrate balance: failed to alter
[12]
  Mul1 expression: induces
  mitophagy: induces
[13]; dose estimated to mimic endogenous concentrations in diabetic animals
  muscle atrophy, given in isolation: insufficient to evoke substantial atrophy
[13]; same dose, streptozotocin-induced diabetes
  muscle atrophy in diabetic adrenalectomized mice: restores normal muscle atrophy

## C[C@]12CCC(=O)C=C1CC[C@@H]1[C@@H]2[C@@H](O)C[C@@]2(C)[C@H]1CC[C@]2(O)C(=O)CO [Cortisol]
[14]
  affinity for mineralocorticoid receptor relative to GR: higher affinity
